Consider 21 molecules from patent US6100280A, “Narcotic antagonist” (Pola Chemical Industries, Inc., priority 1995, dated 2000).

Each structure is given as a SMILES string.

Test [1] has as its target T1, (cocaine derivative [^3 H]WIN35,428 binding, striatum) (Rattus norvegicus, UniProt P23977).
T1 construct: from tissue; host or cells: striatum of male Wistar rats, crude membranes
The experiment in a line: In vitro binding inhibition assay against a cocaine derivative ([^3 H]WIN35,428), striatum crude membrane. Also on record: species or system male Wistar rats. To be noted: [^3 H]WIN35,428 0.5 nM, 2 hours on ice (0-4° C.), pH 7.4, Hill plotting, read-out: 50% Inhibition concentration. Here is the method: (§1) Male Wistar rats were decapitated. From each rat, striatum was immediately removed, and its wet weight was measured. The tissue of striatum was homogenized using a polytron together with a 10-fold amount of 50 mM Tris-HCl buffer (pH 7.4) while being cooled on ice. The homogenate was centrifugally separated (38,700 G, 20 minutes, 4° C.), and the resulting pellet was suspended in a mixture of a 40-fold amount (based on the original tissue weight) of 50 mM Tris-HCl and 100 mM NaCl buffer (pH 7.4).
(§2) The contents were allowed to react for 2 hours on ice (0-4° C.). Reaction was terminated by passing the contents through a glass filter (GF/B, product of Whatman) which had been immersed in 0.1% BSA solution for at least 40 minutes in advance while aspiration was carried out using a cell harvester, followed by washing three times with 5 ml of 50 mM Tris HCl buffer (pH 7.4). The filter and 10 ml of aquazol 2 (product of NEN) were placed in a vial and allowed to stand overnight. Radioactivity was measured using a liquid scintillation counter. […] Specific binding amounts were determined by subtracting the nonspecific binding amounts from the total binding amounts. Fifty(50)% inhibition concentrations were calculated using Hill plotting.

The target of test [2] is T2, narcotic receptors (cocaine derivative [^3 H]WIN35,428 binding, striatum) (Rattus norvegicus, UniProt P23977).
T2 construct: from tissue; host or cells: striatum of male Wistar rats, crude membranes
The experiment in a line: Ex vivo binding inhibition assay ([^3 H]WIN35,428, striatum after intraperitoneal administration). The class given is in vivo, male Wistar rats. To be noted: 30 mg/kg intraperitoneally, 30 minutes after administration, [^3 H]WIN35,428 0.5 nM; control (saline) 0%. Here is the method:
Ex vivo binding inhibition assay
as §1, with “To each male” for “Male”, “Wistar rat, 30 mg/kg of compound 15 was intraperitoneally administered. Thirty minutes after administration,” for “Wistar”, “(20,000” for “(38,700”, “20-fold” for “40-fold”
as §2, with “Control accounts for the sole use of a saline solution administered to rats intraperitoneally. […]” for “Fifty(50)% inhibition concentrations were calculated using Hill plotting.”

T1 sequence (P23977 whole entry): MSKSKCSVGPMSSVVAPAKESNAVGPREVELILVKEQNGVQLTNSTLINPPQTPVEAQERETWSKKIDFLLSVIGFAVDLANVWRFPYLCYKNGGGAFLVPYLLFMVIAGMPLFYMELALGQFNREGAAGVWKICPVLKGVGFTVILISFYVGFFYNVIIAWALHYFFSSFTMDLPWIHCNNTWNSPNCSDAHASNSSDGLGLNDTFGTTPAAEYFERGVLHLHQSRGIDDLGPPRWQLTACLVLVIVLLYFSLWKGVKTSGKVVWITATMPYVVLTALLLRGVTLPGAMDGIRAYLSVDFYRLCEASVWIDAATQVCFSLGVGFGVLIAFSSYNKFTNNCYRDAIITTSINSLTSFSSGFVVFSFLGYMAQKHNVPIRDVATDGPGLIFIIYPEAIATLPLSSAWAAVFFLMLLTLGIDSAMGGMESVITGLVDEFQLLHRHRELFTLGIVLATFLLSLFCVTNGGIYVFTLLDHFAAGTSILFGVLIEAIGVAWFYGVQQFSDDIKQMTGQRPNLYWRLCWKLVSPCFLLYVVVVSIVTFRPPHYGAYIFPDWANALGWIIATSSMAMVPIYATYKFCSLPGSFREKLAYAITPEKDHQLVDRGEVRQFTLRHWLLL
T2 sequence (P23977 whole entry): as above

Take `Nc1ccc(NCC(O)CN2CCN(CCCC(c3ccc(F)cc3)c3ccc(F)cc3)CC2)cc1` (stereo not shown) [Compound 23, 1-[3-(4-aminophenylamino)-2-hydroxypropyl]-4-[4,4-bis(4-fluorophenyl)butyl]-piperazine.3C4H4O4]: the IC50 in test [1] was 0.534 µM.

For the molecule `OC(CNc1ccccc1)CN1CCN(CC(c2ccccc2)c2ccccc2)CC1` (stereo not shown) [Compound 19, 1-[2,2-diphenylethyl)-4-(2-hydroxy-3-phenylamino-propyl)piperazine.2HCl], the IC50 in test [1] came to 0.0722 µM.

For `CC(=O)N(CC(O)CN1CCN(CCCC(c2ccc(F)cc2)c2ccc(F)cc2)CC1)c1ccccc1` (stereo not shown) [Compound 4], the IC50 in test [1] turned out to be 0.0495 µM.

As to `OC(CNCc1ccccc1)CN1CCN(CCCC(c2ccc(F)cc2)c2ccc(F)cc2)CC1` (stereo not shown) [Compound 3, 1-[4,4-bis(4-fluorophenyl)-butyl]-4-(2-hydroxy-3-benzylaminopropyl)-piperazine.2HCl], in test [1], the IC50 was found to be 0.0317 µM.

With `OC(CNc1ccccc1)CN1CCN(CCCC(c2ccc(F)cc2)c2ccc(F)cc2)CC1` (single isomer, unassigned) [Compound 15, (--)-1-[4,4-bis(4-fluorophenyl)butyl]-4-(2-hydroxy-3-phenylaminopropyl)-piperazine.2HCl], the IC50 in test [1] was found to be 0.0376 µM. Also, in test [2], the binding inhibitory ratio is given as 86.1%.

Consider `Oc1ccc(NCC(O)CN2CCN(CCCC(c3ccc(F)cc3)c3ccc(F)cc3)CC2)cc1` (stereo not shown) [Compound 25, 1-[4,4-bis(4-flurophenyl)-butyl]-4-[2-hydroxy-3-(4-hydroxyphenylamino)propyl]-piperazine.2C4H4O4], for which the IC50 in test [1] was 0.0237 µM.

Turning to `CC(=O)OC(CNc1ccccc1)CN1CCN(CCCC(c2ccc(F)cc2)c2ccc(F)cc2)CC1` (stereo not drawn) [Compound 7, l-(2-acetoxy-3-phenylamino-propyl)-4-[4,4-bis(4-fluorophenyl)butyl]piperazine.2C4H4O4], in test [1], the IC50 worked out at 0.0412 µM.

On to `OC(CNc1ccccc1)CN1CCN(C(c2ccc(F)cc2)c2ccc(F)cc2)CC1` (stereo not shown) [Compound 2, 1-[bis(4-fluorophenyl)-methyl]-4-[2-hydroxy-3-phenylaminopropyl)-piperazine.2HCl], for which the IC50 in test [1] worked out at 0.0516 µM.

For the molecule `O=[N+]([O-])c1ccc(NCC(O)CN2CCN(CCCC(c3ccc(F)cc3)c3ccc(F)cc3)CC2)cc1` (stereo not shown) [Compound 20, 1-[4,4-bis(4-fluorophenyl)butyl]-4-[2-hydroxy-3-(4-nitrophenylamino)propyl]-piperazine.2HCl], the IC50 in test [1] amounted to 0.0558 µM.

Consider `OC(CNc1ccccc1)CN1CCN(CCCC(c2ccc(F)cc2)c2ccc(F)cc2)CC1` (single isomer, unassigned; (+)) [Compound 16, (+)-1-[4,4-bis(4-fluorophenyl)butyl)-4-(2-hydroxy-3-phenylaminopropyl)-piperazine.2HCl], for which the IC50 in test [1] was 0.0526 µM.

Regarding `COC(=O)[C@H]1[C@@H](c2ccccc2)C[C@@H]2CC[C@H]1N2C` [WIN35,065-2, reference compound], the IC50 in test [1] worked out at 0.118 µM.

Take `OC(CNc1ccc(F)cc1)CN1CCN(CCCC(c2ccc(F)cc2)c2ccc(F)cc2)CC1` (stereo not shown) [Compound 9, 1-[4,4-bis(4-fluorophenyl)-butyl]-4-[3-(4-fluorophenylamino)-2-hydroxypropyl]-piperazine.2HCl]: in test [1], the IC50 worked out at 0.0468 µM.

Turning to `OC(CNc1ccccc1)CN1CCN(CCC(c2ccc(F)cc2)c2ccc(F)cc2)CC1` (stereo not shown) [Compound 18, 1-[3,3-bis(4-fluorophenyl)-propyl]-4-[2-hydroxy-3-phenylaminopropyl)piperazine], in test [1], the IC50 was 0.015 µM.

Consider `COC(CNc1ccccc1)CN1CCN(CCCC(c2ccc(F)cc2)c2ccc(F)cc2)CC1` (stereo not shown) [Compound 8, 1-[4,4-bis(4-fluorophenyl)-butyl]-4-(2-methoxy-3-phenylaminopropyl)piperazine.2HCl], for which, in test [1], the IC50 amounted to 0.0237 µM.

Consider `OC(CNc1ccccc1)CN1CCN(CCCCC(c2ccc(F)cc2)c2ccc(F)cc2)CC1` (stereo not shown) [Compound 21, 1-[5,5-bis(4-flurophenyl)-pentyl]-4-(2-hydroxy-3-phenylaminopropyl)piperazine.2HCl], for which the IC50 in test [1] came out at 0.0412 µM.

As for `COc1cc(NCC(O)CN2CCN(CCCC(c3ccc(F)cc3)c3ccc(F)cc3)CC2)cc(OC)c1OC` (stereo not shown) [Compound 11, 1-[4,4-bis(4-fluorophenyl)-butyl]-4-[2-hydroxy-3-(3,4,5-trimethoxyphenylamino)-propyl]piperazine.2C4H4O4], the IC50 in test [1] was 0.197 µM.

For the molecule `CN(CC(O)CN1CCN(CCCC(c2ccc(F)cc2)c2ccc(F)cc2)CC1)c1ccccc1` (stereo not shown) [Compound 6, 1-[4,4-bis(4-fluorophenyl)-butyl]-4-[2-hydroxy-3-(N-methyl-N-phenylamino)-propyl]piperazine.2C4H4O4], the IC50 in test [1] was found to be 0.0349 µM.

`CC(C)(C)c1cc(NCC(O)CN2CCN(CCCC(c3ccc(F)cc3)c3ccc(F)cc3)CC2)cc(C(C)(C)C)c1O` (stereo not shown) [Compound 22, 1-[4,4-bis(4-flurophenyl)-butyl]-4-[3-(3,5-di-tert-butyl-4-hydroxyphenylamino)-2-hydroxypropyl]piperazine..3C4H4O4]: the IC50 in test [1] was 0.306 µM.

In the case of `COc1ccc(NCC(O)CN2CCN(CCCC(c3ccc(F)cc3)c3ccc(F)cc3)CC2)cc1` (stereo not shown) [Compound 13, 1-[4,4-bis(4-fluorophenyl)-butyl]-4-[2-hydroxy-3-(4-methoxyphenylamino)propyl]-piperazine.2HCl], the IC50 in test [1] came to 0.105 µM.

With `OC(CNc1ccncc1)CN1CCN(CCCC(c2ccc(F)cc2)c2ccc(F)cc2)CC1` (stereo not shown) [Compound 17, 1-[4,4-bis(4-fluorophenyl)-butyl)-4-[2-hydroxy-3-(4-pyridylamino)propyl]-piperazine.2C4H4O4], in test [1], the IC50 was 0.045 µM.

As for `OC(CNc1ccccc1)CN1CCN(CCCC(c2ccc(F)cc2)c2ccc(F)cc2)CC1` (stereo not shown) [Compound 1, 1-[4,4-bis(4-fluorophenyl)-butyl]-4-(2-hydroxy-3-phenylaminopropyl)piperazine.2HCl], in test [1], the IC50 was determined as 0.0448 µM.
